Data as given in article PMC5454942, “The Potential of Triterpenoids from Loquat Leaves (Eriobotrya japonica) for Prevention and Treatment of Skin Disorder” (International Journal of Molecular Sciences, 2017).
≈ marks a conversion by molar mass, not a printed value. Where “and” joins values, the source holds several entries; their conditions need not be identical. Equal values may be shown once. Read-outs that look alike come from different tables or passages of the source.

Columns and labels:
NHDF cells = test: Skin type I collagen synthesis promoting assay (ELISA, with MTT); assay type: cell-based, human; conditions: 5 μg/mL, fold of control
Method: The assay for measuring the promotion of skin collagen synthesis was described by Kishikawa et al.. Adult NHDF cells (Lonza, Tokyo) were routinely maintained in 10% FBS and 1% antibiotic-antimycotic (Invitrogen) in Dulbecco’s modified Eagle’s medium (DMEM, Wako). After growing to confluence, cells at a density of 5 × 10^3 cells/well were seeded on 96-well plates for 24 h before the treatment. The medium was replaced with a mixture of 1 μL of sample solution (DMSO < 0.5% per well) and 99 μL of DMEM supplemented with 0.5% FBS. After 72 h of cultivation, the amount of collagen in the medium was measured using a human type I collagen enzyme-linked immunosorbent assay (ELISA) kit (ACEL, Kanagawa, Japan). The amount of collagen production was calculated using a standard curve prepared by measurement by the same ELISA. The cells remaining in the 96-well plate were subjected to an MTT assay. Ascorbic acid (100 μM, Wako) was used as a positive control.

RBL-2H3 cells [1] = test: Cell viability of RBL-2H3 cells (parallel MTT); assay type: cell-based, rat; conditions: 25 μg/ml, RBL-2H3 cells
Method: (§1) The anti-allergy assay was based mostly on the methods described by Zhu et al. and Yun et al. with slight modification. Rat basophilic leukemia (RBL-2H3) cells were obtained from the Riken Bio-resource Center Cell Bank (Tsukuba, Japan). RBL-2H3 cells were incubated in EMEM medium containing 10% FBS and 1% antibiotics–antimycotics at 37 °C. The cells were seeded on a 96-well plate (2 × 10^5 cells/well). After 24 h of incubation, the medium was supplemented with 0.5 μg/mL anti-DNP (dinitrophenol) mouse immunoglobulin E (IgE) (Sigma-Aldrich). After an additional 24 h of incubation, the medium was replaced with 100 μL of Tyrode buffer. The sample dissolved in DMSO (<0.5% per well) was added, and the cell plate was incubated again for 30 min, then replaced with 100 μL of tyrode buffer containing 50 μg/mL DNP-bovine serum albumin (BSA) (Invitrogen, Carlsbad, CA, USA). After 1 h of incubation, 50 μL of the supernatant was collected from each well and mixed with 50 μL of substrate solution (p-nitrophenyl-N-acetyl-β-glucosaminide, 2 mM; Sigma-Aldrich) in a new 96-well plate. The mixture was incubated at room temperature on a shaker for 3 h. Finally, 100 μL of stop solution was added, and the absorbance was read at 405 nm. A parallel MTT experiment was performed to measure the cell viability. The MTT experiment was done exactly as described.

B16 melanoma cells [2] = test: Anti-melanogenesis assay (melanin content); assay type: cell-based, mouse
Method: (§2) This assay was performed as described by Arung et al.. The mouse melanoma cell line B16 was obtained from the Riken Bioresource Center Cell Bank (Tsukuba, Japan). The B16 melanoma cells were maintained in Eagle’s Minimal Essential Medium (EMEM, Nissui Chemical, Tokyo) supplemented with 10% (v/v) fetal bovine serum (FBS; Gibco, Carlsbad, CA, USA) and 0.09 mg/mL theophylline (Sigma-Aldrich, St. Louis, MO, USA). […] After 24 h, test samples were dissolved in DMSO (<0.2% per well) and sample solution were added to each well. Arbutin (Tokyo Kasei Kogyo, Tokyo) was used as a positive control. The cells were incubated for an additional 48 h, and then the medium was replaced with fresh medium containing each sample again. After 24 h, the melanin content and the cell viability were measured using a microplate reader (BioTek-ELX800, BioTek Instruments, Winooski, VT, USA) at 405 nm and 570 nm, respectively. Cell viability was measured using the MTT (3-(4,5-dimethylthiazol-2-yl)-2,5-diphenyltetrazolium bromide) method.

B16 melanoma cells [3] = test: Cell viability of B16 melanoma cells (MTT); conditions: for Inhibition rate (100% − cell viability): B16 cells; for CC50 cell viability / CC50: B16 melanoma cells, MTT; for CC50: read-out: CC50 (cell viability)
Method: as §2

Propionibacterium acnes = test: Anti-bacterial assay (growth inhibition, MIC/MBC by broth microdilution); assay type: cell-based; conditions: for activity against P. acnes (in words): at their maximum solubility; for Inhibition Rate (P. acnes growth): concentration 100 μg/mL
Method: The antibacterial assay was based mostly on the methods described by Tanaka et al. with slight modification. Propionibacterium acne (NBRC 107605) was used for the antibacterial assay. A single colony of the test strain was taken and 5 mL of Gifu anaerobic medium (GAM) broth (Nissui, Tokyo) was added to it. This culture was incubated at 37 °C for 30 h. It was then added to the bacterial suspension to prepare a bacterial concentration at 10^5 CFU/mL. The bacterial solution was used for the subsequent antibacterial assay. Each compound was dissolved in DMSO, and benzalkonium chloride (Wako) was used as a positive control. The plate was incubated at 37 °C for 30 h. Finally, bacterial growth was measured by a microplate reader at 630 nm. The MIC and MBC were evaluated by the standard broth microdilution method.

in vitro = conditions: mouse
Method: as §2

[4] = Cell viability of RBL-2H3 cells (parallel MTT); assay type: cell-based, rat; conditions: rat
Method: as §1

RBL-2H3 cells [5] = test: β-hexosaminidase release from IgE-stimulated RBL-2H3 mast cells; assay type: cell-based, rat; conditions: Rattus norvegicus, RBL-2H3
Method: as §1

[6] = B16 melanoma cells, read-out: IC50 (melanin synthesis)
[7] = Mus musculus, B16 melanoma cells, read-out: IC50 (melanin synthesis)
[8] = Mus musculus, B16 melanoma cells, read-out: IC50 melanin
[9] = Mus musculus, B16, read-out: Inhibition rate (100% − melanin synthesis)

| Compound | CP/CV value (collagen production %/cell viability %) (NHDF cells) | Cell viability (RBL-2H3 cells [1]) | Inhibition rate (100% − melanin synthesis) (B16 melanoma cells [2]; 1 μg/ml, B16 cells) | Inhibition rate (100% − melanin synthesis) (B16 melanoma cells [2]; 2.5 μg/ml, B16 cells) | Inhibition rate (100% − melanin synthesis) (B16 melanoma cells [2]; 5 μg/ml, B16 cells) | Inhibition rate (100% − melanin synthesis) (B16 melanoma cells [2]; 10 μg/ml, B16 cells) | Inhibition rate (100% − melanin synthesis) (B16 melanoma cells [2]; 20 μg/ml, B16 cells) | IC50 melanin (B16 melanoma cells [2]; B16 melanoma cells) | IC50 (B16 melanoma cells [2]; [6]) | Inhibition rate (100% − cell viability) (B16 melanoma cells [3]; 1 μg/ml) | Inhibition rate (100% − cell viability) (B16 melanoma cells [3]; 2.5 μg/ml) | Inhibition rate (100% − cell viability) (B16 melanoma cells [3]; 5 μg/ml) | Inhibition rate (100% − cell viability) (B16 melanoma cells [3]; 10 μg/ml) | Inhibition rate (100% − cell viability) (B16 melanoma cells [3]; 20 μg/ml) | CC50 cell viability (B16 melanoma cells [3]) | CC50 (B16 melanoma cells [3]) | MBC (Propionibacterium acnes; P. acnes, broth microdilution) | MIC (Propionibacterium acnes; P. acnes, broth microdilution) | activity against P. acnes (in words) (Propionibacterium acnes) | Inhibition Rate (P. acnes growth) (Propionibacterium acnes) | further results |
| --- | --- | --- | --- | --- | --- | --- | --- | --- | --- | --- | --- | --- | --- | --- | --- | --- | --- | --- | --- | --- | --- |
| C[C@@H]1CC[C@]2(C(=O)O)CC[C@]3(C)C(=CC[C@@H]4[C@@]5(C)C[C@@H](O)[C@H](OC(=O)/C=C/c6ccc(O)cc6)C(C)(C)[C@@H]5CC[C@]43C)[C@@H]2[C@]1(C)O (relative stereo) [Compound 17, 3-O-trans-p-coumaroyl tormentic acid] | 1.2 | 99.8 ± 7.0% | 2.8 ± 0.9% | 6.2 ± 1.7% | 11.1 ± 0.6% | 29.4 ± 6.8% | 30.5 ± 6.0% | > 20.0 µg/mL | > 30.9 µM | 0.0 ± 8.4% | 5.1 ± 6.0% | 10.7 ± 10.0% | 41.1 ± 9.2% | 61.0 ± 1.6% | 15.6 µg/mL (≈ 24.6 µM) | 24 µM | 200 µg/mL (≈ 315 µM) | 100 µg/mL (≈ 158 µM) | active | 101.4 ± 2.1% |  |
| C[C@@H]1CC[C@]2(C(=O)O)CC[C@]3(C)C(=CC[C@@H]4[C@@]5(C)C[C@@H](O)[C@H](OC(=O)/C=C\c6ccc(O)cc6)C(C)(C)[C@@H]5CC[C@]43C)[C@@H]2[C@]1(C)O (relative stereo) [Compound 18, 3-O-cis-p-coumaroyl tormentic acid] | 1.1 | 104.6 ± 6.7% | 0.0 ± 2.1% | 0.0 ± 5.3% | 0.0 ± 3.8% | 35.6 ± 1.1% | 47.1 ± 6.0% | > 20.0 µg/mL | > 30.9 µM | 7.0 ± 8.8% | 6.6 ± 11.1% | 12.6 ± 8.4% | 42.4 ± 14.9% | 80.1 ± 9.5% | 12.6 µg/mL (≈ 19.8 µM) | 19.5 µM | 200 µg/mL (≈ 315 µM) | 100 µg/mL (≈ 158 µM) | active | 103.5 ± 2.2% |  |
| OC[C@H]1O[C@@H](Oc2ccc(O)cc2)[C@H](O)[C@@H](O)[C@@H]1O [Arbutin, reference compound] |  |  |  |  |  |  |  |  |  |  |  |  |  |  |  |  |  |  |  |  | IC50 (B16 melanoma cells [2]; [7]): 976 µM; CC50 at 72 h (in vitro): 1.82 mM |
| C[C@H]1[C@H](C)CC[C@]2(CO)CC[C@]3(C)C(=CC[C@@H]4[C@@]5(C)CC[C@H](O)C(C)(C)[C@@H]5CC[C@]43C)[C@H]12 [Compound 3, Uvaol] |  |  |  |  |  |  |  |  |  |  |  | 4.0 ± 7.6% | 10.8 ± 6.8% | 6.5± 7.4% |  |  |  |  |  |  | viability at 25 μg/ml ([4]; 25 μg/ml, RBL-2H3 cells, read-out: Cell viability): 110 ± 10.2%; inhibition at 5 µg/mL (B16 melanoma cells [2]; Mus musculus, 5 μg/ml, B16 cells, read-out: Inhibition rate (100% − melanin synthesis)): 0%; inhibition at 10 µg/mL (B16 melanoma cells [2]; Mus musculus, 10 μg/ml, B16 cells, read-out: Inhibition rate (100% − melanin synthesis)): 14.2 ± 2.6%; inhibition at 20 µg/mL (B16 melanoma cells [2]; Mus musculus, 20 μg/ml, B16 cells, read-out: Inhibition rate (100% − melanin synthesis)): 14.6 ± 4.6%; IC50 (B16 melanoma cells [2]; [7]): > 45.2 µM; IC50 (B16 melanoma cells [2]; [8]): > 20 µg/mL; CC50 at 72 h (in vitro; B16 melanoma cells): > 0.0452 mM; inhibition at 25 µg/mL (RBL-2H3 cells [5]; 25 μg/mL, read-out: Inhibition Rate (β-hexosaminidase release)): 29.9 ± 3.3%; inhibition at 50 µg/mL (Propionibacterium acnes; Cutibacterium acnes, concentration 50 μg/mL, read-out: Inhibition Rate (P. acnes growth)): < 0% |
| CC1CCC2(C(=O)O)CCC3(C)C(=CCC4C5(C)C(CO)=CC(C)(C)C5CCC43C)C2C1(C)O (stereo not drawn) [Compound 16, hyptadienic acid] |  |  |  |  |  |  |  |  |  | 3.7 ± 3.8% | 14.7 ± 4.2% | 28.9 ± 3.2% | 60.3 ± 6.5% |  |  |  |  |  | active |  | viability at 25 μg/ml [4]: 99.9 ± 2.3%; S.I (selectivity index, CC50 value/IC50 value) (B16 melanoma cells [2]; B16 melanoma cells): 0.8; IC50 (B16 melanoma cells [2]; Mus musculus, B16, read-out: IC50 (melanin synthesis)): 21.6 µM; inhibition at 1 µg/mL (B16 melanoma cells [2]; [9]): 0.1 ± 4.5%; inhibition at 2.5 µg/mL (B16 melanoma cells [2]; [9]): 1.9 ± 3.4%; inhibition at 5 µg/mL (B16 melanoma cells [2]; [9]): 13.4 ± 5.5%; inhibition at 10 µg/mL (B16 melanoma cells [2]; [9]): 51.8 ± 5%; IC50 (B16 melanoma cells [2]; [8]): 10.1 µg/mL; CC50 at 72 h (in vitro): 7.8 µg/mL and 16.5 µM; MBC (Propionibacterium acnes; Cutibacterium acnes): 200 µg/mL (≈ 425 µM); MIC (Propionibacterium acnes; Cutibacterium acnes): 100 µg/mL (≈ 212 µM); inhibition at 100 µg/mL (Propionibacterium acnes; Cutibacterium acnes, read-out: Inhibition Rate (P. acnes growth)): 104 ± 3.1% |
| O=c1c(O)c(-c2ccc(O)c(O)c2)oc2cc(O)cc(O)c12 [Quercetin, reference compound] |  |  |  |  |  |  |  |  |  |  |  |  |  |  |  |  |  |  |  |  | inhibition at 82 µM (RBL-2H3 cells [5]; 82 μM, positive control, read-out: inhibition rate of β-hexosaminidase release): 72.5% |
